viability, T/C and IC50 data for three molecules are collected here from PubChem BioAssay AID2060615 (Molecular Pharmacology Branch, DTP, NCI, 2025).

This experiment relates to 496974-208-R-J2-PDC complex spheroids, growth % test/control. Kind of experiment: Anticancer human tumor 496974-208-R-J2-PDC patient-derived pancreatic carcinoma cell line growth inhibition [CLK]. Particulars: for viability, T/C: stronger effect = lower value. From the text:
A high-throughput screen of multi-cell type tumor spheroids was designed to identify active combinations of […] and targeted small molecules. Complex spheroids include a stromal component modeled by human endothelial cells (HUVEC) and fibroblasts modeled by human mesenchymal stem cells (MSCs). The concentration ranges selected for each drug and investigational agent were based upon clinically achievable concentrations if the clinical Cmax of the agent was known.
Compounds. The drugs and investigational agents: cirtuvivint (SM08502; NSC835563), CC-671 (NSC850746), vemurafenib (NSC761431), tapotoclax (NSC804041), sotorasib (NSC818433), adagrasib (NSC831453), MRTX-1133 (NSC836407), BAY2416964 (NSC825713), copanlisib (NSC816437), inavolisib (NSC800729), abemaciclib (NSC768073), osimertinib (NSC779217), entinostat (NSC756642), eltanexor (KPT-8602, NSC794443), venetoclax (NSC766270), ceralasertib (NSC777638), bortezomib (NSC756655), olaparib (NSC753686), talazoparib (NSC767125), alisertib (NSC759677), peposertib (NSC802822), gemcitabine (NSC613327), 5-fluorouracil (NSC19893), SN-38 (NSC673596), oxaliplatin (NSC266046), paclitaxel (NSC125973), and doxorubicin (NSC123127), were obtained from the National Cancer Institute (NCI) Developmental Therapeutics Program Chemical Repository. The FDA-approved anticancer drug set is available from the Developmental Therapeutics Program at https://dtp.cancer.gov/organization/dscb/obtaining/available plates.htm. […] The stock solutions were prepared in dimethyl sulfoxide (DMSO, Sigma-Aldrich, St. Louis, MO, cat. D2650), except for the platinum complexes which were prepared in saline (Quality Biological, Gaithersburg, MD, cat. 114-055-101), at 800-fold the tested concentration and stored at -70 degrees C prior to their use. All drugs and investigational agents were tested over a range starting from a high concentration at or near the clinical Cmax and decreasing in half-log increments. If the clinical Cmax for an agent had not been determined, the highest concentration tested was 10 microM.
Cell Culture. All cells were maintained in an incubator at 37 degrees C and 5% CO2 with 95% humidity. The PDC lines were cultured according to standard operating procedures established by the NCI PDMR. Briefly, all PDCs were thawed and cultured in Matrigel-coated flasks prepared with a working solution of 1X Ham's F-12 nutrient mix, without supplementation (Invitrogen, Waltham, MA, cat. 11765054), 100 U/mL penicillin-streptomycin (Invitrogen, cat. 15140122), and 2.5% Matrigel (Corning Inc., Corning, NY, cat. 354248) for the first three passages. The 947758-054-R-J2-PDC line was cultured in 6B/Colon 1A media, which includes advanced DMEM/F-12 (Thermo Fisher Scientific, cat. 12634028), 10 mM HEPES (Thermo Fisher Scientific, cat. 15630080), 1X GlutaMAX supplement (Thermo Fisher Scientific, cat. 35050061), 0.1 mg/mL primocin (InvivoGen, cat. ant-pm-2), 10% defined fetal bovine serum, heat inactivated (HyClone Laboratories Inc., cat. SH30070.03HI), 1.25 mM N-Acetyl-L-cysteine (Sigma-Aldrich, cat. A9165), 10 mM nicotinamide (Sigma-Aldrich, cat. N0636), 1X B-27 supplement (Thermo Fisher Scientific, cat. 17504044), 1X N-2 supplement (Thermo Fisher Scientific, cat. 17502048), and 10 microM Y-27632 dihydrochloride (Tocris Bioscience, cat. 1254). The 876862-298-R-J1-PDC was cultured in 6E media, which includes all 6B/Colon 1A media components plus 50% L-WRN conditioned media (ATCC, cat. CRL-3276), 50 ng/mL recombinant human EGF recombinant protein (hEGF; Thermo Fisher Scientific, cat. PHG0311), 10 ng/mL recombinant human fibroblast growth factor 10 (hGFG-10; PeproTech, cat. 100-26), 1 ng/mL recombinant human fibroblast growth factor 2 (hFGF-2; PeproTech, cat. 100-18B), and 1 µM prostaglandin E2 (PGE2; Tocris, cat. 2296). The 227483-062-R1-J1-PDC line was cultured in Panc media, containing all 6E components except hFGF-2, with the addition of 500 nM SB-431542 (Selleckchem, cat. S1067) and 10 nM gastrin (Tocris, cat. 3006). […]

SMILES strings stand for the structures. Values joined by “and” are separate entries in the source; they are usually repeats but may differ in a detail not shown here. Identical values can stand only once.
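Further: spheroids exposed to the drugs for 7 days before readout.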
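Wherever viability, T/C is given: 100% = DMSO vehicle control wells.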

For orientation: viability, T/C means the ratio of treated to control. One may read the IC50 as the point on the concentration scale where inhibition reaches its midpoint. With `CC(CO)NC(=O)c1cc(-c2ccc(Cl)cc2)nn(-c2cnn(C)c2)c1=O` (stereo unspecified), the viability, T/C was 106% and 99.5% (compound 0.0316 µM); 105% and 97.1% (compound 0.1 µM); 96.2% and 100% (compound 0.316 µM); 85.5% and 96.2% (compound 1 µM); 91.6% and 91.4% (compound 3.16 µM); 42.6% and 52.9% (compound 10 µM). Further, the 50% inhibitory concentration (IC50) (curve of compound) is 8.39 µM and > 10 µM.

On to `COC1C=CCC(C)C(C)S(=O)(=O)NC(=O)c2ccc3c(c2)N(CC2CCC21)CC1(CCCc2cc(Cl)ccc21)CO3` (stereo unspecified), for which the viability, T/C is, setting by setting: (compound 0.0316 µM) 99.2% and 100%; (compound 0.1 µM) 95.3% and 65.2%; (compound 0.316 µM) 89.4% and 82.5%; (compound 1 µM) 75.1% and 74.3%; (compound 3.16 µM) 60.6% and 58.6%; (compound 10 µM) 43.4% and 26%. Further, the IC50 (curve of compound) is 6.38 µM and 4.15 µM.

Turning to `C=CC(=O)N1CCN(c2nc(=O)n(-c3c(C)ccnc3C(C)C)c3nc(-c4c(O)cccc4F)c(F)cc23)C(C)C1` (stereo unspecified) + CNC(=O)c1ccc(Nc2nc(OC3CCCC3)c3c(-c4ccc5nc(C)oc5c4)c[nH]c3n2)c(OC)c1, the IC50 by setting is: (curve of first compound, second compound 0.0316 µM) more than 10 µM; (curve of first compound, second compound 0.1 µM) more than 10 µM; (curve of first compound, second compound 0.316 µM) more than 10 µM; (curve of first compound, second compound 1 µM) more than 10 µM; (curve of first compound, second compound 3.16 µM) 7.28 µM; (curve of first compound, second compound 10 µM) 4.7 µM. Moreover, the viability, T/C runs as follows: (second compound 0.0316 µM, first compound 0.0316 µM) 106%; (second compound 0.0316 µM, first compound 0.1 µM) 95.9%; (second compound 0.0316 µM, first compound 0.316 µM) 93.6%; (second compound 0.0316 µM, first compound 1 µM) 107%; (second compound 0.0316 µM, first compound 3.16 µM) 102%; (second compound 0.0316 µM, first compound 10 µM) 85.7%. Also, the viability, T/C was 71.5% (second compound 0.1 µM, first compound 0.0316 µM); 67.4% (second compound 0.1 µM, first compound 0.1 µM); 78.5% (second compound 0.1 µM, first compound 0.316 µM); 77.1% (second compound 0.1 µM, first compound 1 µM); 73% (second compound 0.1 µM, first compound 3.16 µM); 64.8% (second compound 0.1 µM, first compound 10 µM). Also, the viability, T/C was 78.8% (second compound 0.316 µM, first compound 0.0316 µM); 76.5% (second compound 0.316 µM, first compound 0.1 µM); 71% (second compound 0.316 µM, first compound 0.316 µM); 76.2% (second compound 0.316 µM, first compound 1 µM); 71.1% (second compound 0.316 µM, first compound 3.16 µM); 53.3% (second compound 0.316 µM, first compound 10 µM). The viability, T/C is, setting by setting: (second compound 1 µM, first compound 0.0316 µM) 63.2%; (second compound 1 µM, first compound 0.1 µM) 62.8%; (second compound 1 µM, first compound 0.316 µM) 67.7%; (second compound 1 µM, first compound 1 µM) 68.8%; (second compound 1 µM, first compound 3.16 µM) 66%; (second compound 1 µM, first compound 10 µM) 49%. Moreover, the viability, T/C (second compound 3.16 µM, first compound 0.0316 µM) is 51.6%; the viability, T/C (second compound 3.16 µM, first compound 0.1 µM) was 62.4%; the viability, T/C (second compound 3.16 µM, first compound 0.316 µM) is 52.3%; the viability, T/C (second compound 3.16 µM, first compound 1 µM) was 58.5%; the viability, T/C (second compound 3.16 µM, first compound 3.16 µM) is 55%; the viability, T/C (second compound 3.16 µM, first compound 10 µM) is 42.7%. Moreover, the viability, T/C is, setting by setting: (second compound 10 µM, first compound 0.0316 µM) 62%; (second compound 10 µM, first compound 0.1 µM) 51.5%; (second compound 10 µM, first compound 0.316 µM) 51.6%; (second compound 10 µM, first compound 1 µM) 54.3%; (second compound 10 µM, first compound 3.16 µM) 55.7%; (second compound 10 µM, first compound 10 µM) 41%.
